# Earlier results as cited in patent publication US20110253140A1, “FORMULATIONS CONTAINING LARGE-SIZE CARRIER PARTICLES FOR DRY POWDER INHALATION AEROSOLS” (STC.UNM, priority 2008, published 2011).
# Where two headings read alike, the source gives them in different places.
structure (smiles),measurement,setting,value
CCCC1O[C@@H]2C[C@H]3[C@@H]4CCC5=CC(=O)C=C[C@]5(C)[C@H]4[C@@H](O)C[C@]3(C)[C@]2(C(=O)CO)O1 (some centres unmarked) [budesonide],"lung deposition, % of the metered dose",PIF 35 L/min,14.8%
same,"lung deposition, % of the metered dose",peak inspiratory flow rate (PIF) 60 L/min,27.7%
